Assays:
intact CSQ mouse hearts = assay: Cardiac function in intact CSQ mouse heart preparation
Method: (§1) Following injection of heparin via tail vein (500 U/kg, iv) and anesthetization with nembutal (125 mg/kg for rats and 150 mg/kg for mice, ip) intraperitoneally, heart with all major vessels and lungs attached were excised. The aorta was then cannulated with a 20-gauge catheter, positioned about 2 mm above the coronary ostia. For the Langendorff method, a water-filled latex balloon (size #3) was inserted into the lumen of the left ventricle via the left atrium. The distal end of the balloon attached catheter was connected to a pressure transducer for measurement of intraventricular pressure and ±dP/dt. The balloon was inflated to a constantly held diastolic pressure of 5-7 mmHg. […]
(§2) For the working heart model, a column of KHS buffer produced a constant hydrostatic pressure of 65 mmHg (for rat) or 55 mmHg (for mice). […] Aortic flow was the amount of perfusate exiting the aortic cannula measured in […]. […]
(§3) The pressure recordings were channeled from amplifiers which had been pre-calibrated by a transducer simulator/calibrator (Ken Scientific Corp., Litchfield, Conn.). […] Data were analyzed by computer software (WorkBench for Windows+, Kent Scientific Corp) designed for an IBM-compatible computer (Dell). […] Data obtained with and without drug were analyzed by paired t test for possible statistically significant differences. […]

intact WT mouse hearts = assay: Cardiac function in intact WT mouse heart preparation
Method: as §1, §2, §3

For `Nc1nc(Cl)nc2c1ncn2C1[C@H]2C[C@@]2(COP(=O)(O)O)[C@@H](O)[C@H]1O` (stereo partly drawn) [MRS2339, (1′S,2′R,3′S,4′R,5′S)-4-(6-amino-2-chloro-9H-purin-9-yl)-1-[phosphoryloxymethyl]bicyclo[3.1.0]hexane-2,3-diol], the “+dP/dt” value (intact CSQ mouse hearts) was “increased” and the “+dP/dt” value (intact WT mouse hearts) was “increased”.
